Experimental data: US12371454B2, “Cyclic peptide compound having Kras inhibitory action” (priority 2019, dated 2025)
Starred links: 1 amine or outer side, 2 acyl side, 3 side chain; linkers in the order of their positions; H or OH if unused. Positions of bridges follow the written chain, without caps; N, C: chain ends. Non-standard residues stand in square brackets, D forms with d. Residues, ends and D or L forms follow the SMILES beside them. *: point of attachment. hPhe(3-Cl-4-CF3) = N[C@@H](CCc1ccc(C(F)(F)F)c(Cl)c1)C(=O)O; hPhe(3-F,4-CF3) = N[C@@H](CCc1ccc(C(F)(F)F)c(F)c1)C(=O)O; 3Oxa8azabicyclo(3.2.1)octane = C1CC2COCC1N2*; NMeAbu(4,4,4-F3) = CN[C@@H](CC(F)(F)F)C(=O)O; NMePhe(4-Me) = CN[C@@H](Cc1ccc(C)cc1)C(=O)O; NMedβ3hAla = C[C@H](CC(=O)[*:2])N(C)[*:1]; Abu(4,4,4-F3) = N[C@@H](CC(F)(F)F)C(=O)O; NMeAla(cPent) = CN[C@@H](CC1CCCC1)C(=O)O; NMeGly(cPent) = CN[C@H](C(=O)O)C1CCCC1; NMeGly(cBu) = CN[C@H](C(=O)O)C1CCC1; NMeCha = CN[C@@H](CC1CCCCC1)C(=O)O; NMeGly(cPr) = CN[C@H](C(=O)O)C1CC1; NMehLeu = CN[C@@H](CCC(C)C)C(=O)O; NMeChg = CN[C@H](C(=O)O)C1CCCCC1; NMeF = CN[C@@H](Cc1ccccc1)C(=O)O; NMeI = CC[C@H](C)[C@H](NC)C(=O)O; NMeE = CN[C@@H](CCC(=O)O)C(=O)O; NMeD = CN[C@@H](CC(=O)O)C(=O)O; NMeL = CN[C@@H](CC(C)C)C(=O)O; Chg = N[C@H](C(=O)O)C1CCCCC1; NMePra = C#CC[C@H](NC)C(=O)O; NMeV = CN[C@H](C(=O)O)C(C)C; d(β3hA) = C[C@@H](N)CC(=O)O; NMeAbu = CC[C@H](NC)C(=O)O; NMeS = CN[C@@H](CO)C(=O)O; Morpholide = C1CN(*)CCO1; NMeA = CN[C@@H](C)C(=O)O; Piperidide = C1CCN(*)CC1; Pyrrolidide = C1CCN(*)C1; Ac5c = NC1(C(=O)O)CCCC1; Aze = O=C(O)[C@@H]1CCN1; Sar = CNCC(=O)O; Propyl = CCC*

Columns and labels:
[1] = molecular target: T1, Kras and SOS1 (biotin-tagged human Kras loaded with GDP, His-tagged human SOS1) (Homo sapiens, UniProt P01116, G12D); experiment: Protein-protein interaction inhibition between Kras and SOS1 (KrasGl2D-SOS PPI) using AlphaScreen; type: binding; conditions: AlphaScreen; biotin-tagged human Kras loaded with GDP, His-tagged human SOS1; read-out: KRAS G12D-SOS PPI IC50
T1 construct: made in house; host or cells: E. coli (stated for Kras only)
T1 sequence (P01116 1-188 isoform P01116-2 G12D): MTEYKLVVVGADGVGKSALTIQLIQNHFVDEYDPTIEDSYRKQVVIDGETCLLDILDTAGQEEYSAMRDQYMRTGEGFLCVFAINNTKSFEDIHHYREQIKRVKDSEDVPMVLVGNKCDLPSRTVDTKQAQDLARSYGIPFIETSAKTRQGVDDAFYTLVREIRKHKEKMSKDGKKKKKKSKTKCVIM
Procedure, shortened: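 Kras was produced in E. coli, purified, then loaded with GDP. It was paired via streptavidin acceptor beads with His-SOS1 held on nickel donor beads, and proximity signal at 520-620 nm was read after 680 nm illumination.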

[2] = tested on: Human pancreatic cancer cell line AsPC-1; experiment: Measurement of AsPC-1 cell growth inhibition (AsPC-1 CGI); type: cell-based; conditions: 96 h
Procedure, shortened: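 AsPC-1 cells in 15% FBS RPMI-1640 were exposed to test compound for 96 hours at 37° C, with CellTiter-Glo as endpoint.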

Structure (SMILES) | IC50 [1] | IC50 [2]
CC(C)C[C@H]1C(=O)N[C@@H](CC(F)(F)F)C(=O)N(C)CC(=O)N(C)CC(=O)N(C)[C@@H](CC2CCCCC2)C(=O)N(C)CC(=O)N[C@@H](CCc2ccc(C(F)(F)F)c(Cl)c2)C(=O)N2CCC[C@H]2C(=O)NC2(CCCC2)C(=O)N(C)[C@@H](C2CCCCC2)C(=O)N(C)[C@H](C(=O)N2CCCCC2)CC(=O)N1C [Compound 1744] ([NMeL][Abu(4,4,4-F3)][Sar][Sar][NMeCha][Sar][hPhe(3-Cl-4-CF3)]P[Ac5c][NMeChg][NMeD]-Piperidide; lactam N-11) | 0.004 µM | 0.1 to 0.5 µM
CC[C@H](C)[C@@H]1NC(=O)[C@H](CC(C)C)N(C)C(=O)C[C@@H](C(=O)N2CCCCC2)N(C)C(=O)[C@H](CCC(C)C)N(C)C(=O)C2(CCCC2)NC(=O)[C@@H]2CCCN2C(=O)[C@H](CCc2ccc(C(F)(F)F)c(Cl)c2)NC(=O)CN(C)C(=O)[C@H](CC2CCCCC2)N(C)C(=O)CN(C)C(=O)CN(C)C1=O [Compound 762] ([NMeL]I[Sar][Sar][NMeCha][Sar][hPhe(3-Cl-4-CF3)]P[Ac5c][NMehLeu][NMeD]-Piperidide; lactam N-11) | 0.0055 µM | 0.1 to 0.5 µM
CC[C@H](C)[C@@H]1NC(=O)[C@H](CC(F)(F)F)N(C)C(=O)C[C@@H](C(=O)N2CCCCC2)N(C)C(=O)[C@H](C2CCCCC2)N(C)C(=O)C2(CCCC2)NC(=O)[C@@H]2CCCN2C(=O)[C@H](CCc2ccc(C(F)(F)F)c(Cl)c2)NC(=O)CN(C)C(=O)[C@H](CC2CCCCC2)N(C)C(=O)CN(C)C(=O)CN(C)C1=O [Compound 1701] ([NMeAbu(4,4,4-F3)]I[Sar][Sar][NMeCha][Sar][hPhe(3-Cl-4-CF3)]P[Ac5c][NMeChg][NMeD]-Piperidide; lactam N-11) | 0.00075 µM | 0.02 to 0.05 µM
CC(C)C[C@H]1C(=O)N[C@@H](C2CCCCC2)C(=O)N(C)CC(=O)N(C)CC(=O)N(C)[C@@H](CC2CCCCC2)C(=O)N(C)CC(=O)N[C@@H](CCc2ccc(C(F)(F)F)c(Cl)c2)C(=O)N2CCC[C@H]2C(=O)NC2(CCCC2)C(=O)N(C)[C@@H](C2CCCCC2)C(=O)N(C)[C@H](C(=O)N2CCCCC2)CC(=O)N1C [Compound 552] ([NMeL][Chg][Sar][Sar][NMeCha][Sar][hPhe(3-Cl-4-CF3)]P[Ac5c][NMeChg][NMeD]-Piperidide; lactam N-11) | 0.00063 µM | 0.1 to 0.5 µM
CC[C@H](C)[C@@H]1NC(=O)[C@H](C2CCC2)N(C)C(=O)C[C@@H](C(=O)N2C3CCC2COC3)N(C)C(=O)[C@H](C2CCCCC2)N(C)C(=O)C2(CCCC2)NC(=O)[C@@H]2CCCN2C(=O)[C@H](CCc2ccc(C(F)(F)F)c(Cl)c2)NC(=O)CN(C)C(=O)[C@H](CC2CCCC2)N(C)C(=O)CN(C)C(=O)CN(C)C1=O [Compound 461] ([NMeGly(cBu)]I[Sar][Sar][NMeAla(cPent)][Sar][hPhe(3-Cl-4-CF3)]P[Ac5c][NMeChg][NMeD]-{3Oxa8azabicyclo(3.2.1)octane}; lactam N-11) | 0.0012 µM | 0.1 to 0.5 µM
CC[C@H](C)[C@@H]1NC(=O)[C@H](CC(C)C)N(C)C(=O)C[C@@H](C(=O)N(C)C)N(C)C(=O)[C@H](C2CCCC2)N(C)C(=O)C2(CCCC2)NC(=O)[C@H](CCC(=O)NC)N(C)C(=O)[C@H](CCc2ccc(C(F)(F)F)c(Cl)c2)NC(=O)CN(C)C(=O)[C@H](CC2CCCCC2)N(C)C(=O)[C@@H]2CCN2C(=O)[C@H](C)N(C)C1=O [Compound 1921] ([NMeL]I[NMeA][Aze][NMeCha][Sar][hPhe(3-Cl-4-CF3)][NMeE](NHMe)[Ac5c][NMeGly(cPent)][NMeD]-NMe2; lactam N-11) | 0.00083 µM | 0.1 to 0.5 µM
CCCOC[C@H]1C(=O)N(C)CC(=O)N[C@@H](CCc2ccc(C(F)(F)F)c(Cl)c2)C(=O)N2CCC[C@H]2C(=O)NC2(CCCC2)C(=O)N(C)[C@@H](C2CCCCC2)C(=O)N(C)[C@H](C(=O)N2CCOCC2)CC(=O)N(C)[C@@H](CC(F)(F)F)C(=O)N[C@@H]([C@@H](C)CC)C(=O)N(C)CC(=O)N(C)CC(=O)N1C [Compound 445] ([NMeAbu(4,4,4-F3)]I[Sar][Sar][NMeS](Propyl)[Sar][hPhe(3-Cl-4-CF3)]P[Ac5c][NMeChg][NMeD]-Morpholide; lactam N-11) | 0.00067 µM | 0.1 to 0.5 µM
CC[C@H](C)[C@@H]1NC(=O)[C@H](CC)N(C)C(=O)C[C@@H](C(=O)N2C3CCC2COC3)N(C)C(=O)[C@H](C2CCCCC2)N(C)C(=O)C2(CCCC2)NC(=O)[C@@H]2CCCN2C(=O)[C@H](CCc2ccc(C(F)(F)F)c(Cl)c2)NC(=O)CN(C)C(=O)[C@H](Cc2ccc(C)cc2)N(C)C(=O)CN(C)C(=O)CN(C)C1=O [Compound 1963] ([NMeAbu]I[Sar][Sar][NMePhe(4-Me)][Sar][hPhe(3-Cl-4-CF3)]P[Ac5c][NMeChg][NMeD]-{3Oxa8azabicyclo(3.2.1)octane}; lactam N-11) | 0.00063 µM | 0.05 to 0.1 µM
CC[C@H](C)[C@@H]1NC(=O)[C@H](CC(C)C)N(C)C(=O)C[C@@H](C)N(C)C(=O)[C@H](C(C)C)N(C)C(=O)C2(CCCC2)NC(=O)[C@@H]2CCCN2C(=O)[C@H](CCc2ccc(C(F)(F)F)c(Cl)c2)NC(=O)CN(C)C(=O)[C@H](Cc2ccccc2)N(C)C(=O)CN(C)C(=O)CN(C)C1=O [Compound 1604] (cyclo([Ac5c][NMeV][NMedβ3hAla][NMeL]I[Sar][Sar][NMeF][Sar][hPhe(3-Cl-4-CF3)]P)) | 0.0058 µM | 0.05 to 0.1 µM
CC[C@H](C)[C@@H]1NC(=O)[C@H](CC(C)C)N(C)C(=O)C[C@@H](C)N(C)C(=O)[C@H](C(C)C)N(C)C(=O)C2(CCCC2)NC(=O)[C@@H]2CCCN2C(=O)[C@H](CCc2ccc(C(F)(F)F)c(F)c2)NC(=O)CN(C)C(=O)[C@H](CC2CCCCC2)N(C)C(=O)CN(C)C(=O)CN(C)C1=O [Compound 337] (cyclo([Ac5c][NMeV][NMedβ3hAla][NMeL]I[Sar][Sar][NMeCha][Sar][hPhe(3-F,4-CF3)]P)) | 0.016 µM | 0.1 to 0.5 µM
CC[C@H](C)[C@@H]1NC(=O)[C@H](CC2CCCC2)N(C)C(=O)C[C@@H](C)NC(=O)[C@H](C(C)C)N(C)C(=O)C2(CCCC2)NC(=O)[C@@H]2CCCN2C(=O)[C@H](CCc2ccc(C(F)(F)F)c(Cl)c2)NC(=O)CN(C)C(=O)[C@H](CC2CCCCC2)N(C)C(=O)CN(C)C(=O)CN(C)C1=O [Compound 901] (cyclo([Ac5c][NMeV][d(β3hA)][NMeAla(cPent)]I[Sar][Sar][NMeCha][Sar][hPhe(3-Cl-4-CF3)]P)) | 0.035 µM | 0.1 to 0.5 µM
CC[C@H](C)[C@@H]1NC(=O)[C@H](CC)N(C)C(=O)C[C@@H](C(=O)N2CCOCC2)N(C)C(=O)[C@H](C2CCCCC2)N(C)C(=O)C2(CCCC2)NC(=O)[C@@H]2CCCN2C(=O)[C@H](CCc2ccc(C(F)(F)F)c(Cl)c2)NC(=O)CN(C)C(=O)[C@H](CC2CCCC2)N(C)C(=O)CN(C)C(=O)CN(C)C1=O [Compound 1999] ([NMeAbu]I[Sar][Sar][NMeAla(cPent)][Sar][hPhe(3-Cl-4-CF3)]P[Ac5c][NMeChg][NMeD]-Morpholide; lactam N-11) | 0.00082 µM | 0.1 to 0.5 µM
CC[C@H](C)[C@@H]1NC(=O)[C@H](C2CCC2)N(C)C(=O)C[C@@H](C(=O)N2CCOCC2)N(C)C(=O)[C@H](C2CCCCC2)N(C)C(=O)C2(CCCC2)NC(=O)[C@@H]2CCCN2C(=O)[C@H](CCc2ccc(C(F)(F)F)c(Cl)c2)NC(=O)CN(C)C(=O)[C@H](CC2CCCCC2)N(C)C(=O)CN(C)C(=O)CN(C)C1=O [Compound 890] ([NMeGly(cBu)]I[Sar][Sar][NMeCha][Sar][hPhe(3-Cl-4-CF3)]P[Ac5c][NMeChg][NMeD]-Morpholide; lactam N-11) | 0.00047 µM | 0.02 to 0.05 µM
CC[C@H](C)[C@@H]1NC(=O)[C@H](CC(C)C)N(C)C(=O)C[C@@H](C(=O)N2CCCC2)N(C)C(=O)[C@H]([C@@H](C)CC)N(C)C(=O)C2(CCCC2)NC(=O)[C@@H]2CCCN2C(=O)[C@H](CCc2ccc(C(F)(F)F)c(Cl)c2)NC(=O)CN(C)C(=O)[C@H](Cc2ccc(C)cc2)N(C)C(=O)CN(C)C(=O)CN(C)C1=O [Compound 1790] ([NMeL]I[Sar][Sar][NMePhe(4-Me)][Sar][hPhe(3-Cl-4-CF3)]P[Ac5c][NMeI][NMeD]-Pyrrolidide; lactam N-11) | 0.0007 µM | 0.02 to 0.05 µM
CC[C@H](C)[C@@H]1NC(=O)[C@H](C2CC2)N(C)C(=O)C[C@@H](C(=O)N2CCCCC2)N(C)C(=O)[C@H](C2CCCCC2)N(C)C(=O)C2(CCCC2)NC(=O)[C@@H]2CCCN2C(=O)[C@H](CCc2ccc(C(F)(F)F)c(Cl)c2)NC(=O)CN(C)C(=O)[C@H](CC2CCCCC2)N(C)C(=O)CN(C)C(=O)CN(C)C1=O [Compound 1796] ([NMeGly(cPr)]I[Sar][Sar][NMeCha][Sar][hPhe(3-Cl-4-CF3)]P[Ac5c][NMeChg][NMeD]-Piperidide; lactam N-11) | 0.00076 µM | 0.1 to 0.5 µM
C#CC[C@H]1C(=O)N[C@@H]([C@@H](C)CC)C(=O)N(C)CC(=O)N(C)CC(=O)N(C)[C@@H](CC2CCCCC2)C(=O)N(C)CC(=O)N[C@@H](CCc2ccc(C(F)(F)F)c(Cl)c2)C(=O)N2CCC[C@H]2C(=O)NC2(CCCC2)C(=O)N(C)[C@@H](C2CCCCC2)C(=O)N(C)[C@H](C(=O)N2CCCCC2)CC(=O)N1C [Compound 551] ([NMePra]I[Sar][Sar][NMeCha][Sar][hPhe(3-Cl-4-CF3)]P[Ac5c][NMeChg][NMeD]-Piperidide; lactam N-11) | 0.00052 µM | 0.05 to 0.1 µM
